# From PubChem BioAssay AID1963873 (Molecular Pharmacology Branch, DTP, NCI, 2024)
# pIC50: −log10 of the molar value.
# Test system: 276233-004-R-J1-PDC KRAS spheroids with HUVEC/MSC, viability
# Test: Anticancer human tumor 276233-004-R-J1-PDC patient-derived colon adenocarcinoma cell line growth inhibition [KRAS2]
# Conditions: for viability, T/C: stronger effect = lower value
# Summary of the method: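 KRAS-mutant tumor cells were grown as spheroids with HUVEC endothelial cells and human MSCs as stroma. Targeted agents were tested alone and with KRAS pathway inhibitors. Doses started at or near clinical Cmax, or 10 microM, descending half-log.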
# [1] = curve of first compound, second compound 0.1 µM
# [2] = curve of first compound, second compound 0.316 µM
# [3] = curve of first compound, second compound 1 µM
# [4] = curve of first compound, second compound 3.16 µM
# [5] = curve of first compound, second compound 10 µM
# [6] = second compound 0.1 µM, first compound 0.0316 µM
# [7] = second compound 0.1 µM, first compound 0.1 µM
# [8] = second compound 0.1 µM, first compound 0.316 µM
# [9] = second compound 0.1 µM, first compound 1 µM
# [10] = second compound 0.1 µM, first compound 3.16 µM
# [11] = second compound 0.1 µM, first compound 10 µM
# [12] = second compound 0.316 µM, first compound 0.0316 µM
# [13] = second compound 0.316 µM, first compound 0.1 µM
# [14] = second compound 0.316 µM, first compound 0.316 µM
# [15] = second compound 0.316 µM, first compound 1 µM
# [16] = second compound 0.316 µM, first compound 3.16 µM
# [17] = second compound 0.316 µM, first compound 10 µM
# [18] = second compound 1 µM, first compound 0.0316 µM
# [19] = second compound 1 µM, first compound 0.1 µM
# [20] = second compound 1 µM, first compound 0.316 µM
# [21] = second compound 1 µM, first compound 1 µM
# [22] = second compound 1 µM, first compound 3.16 µM
# [23] = second compound 1 µM, first compound 10 µM
# [24] = second compound 3.16 µM, first compound 0.0316 µM
# [25] = second compound 3.16 µM, first compound 0.1 µM
# [26] = second compound 3.16 µM, first compound 0.316 µM
# [27] = second compound 3.16 µM, first compound 1 µM
# [28] = second compound 3.16 µM, first compound 3.16 µM
# [29] = second compound 3.16 µM, first compound 10 µM
# [30] = second compound 10 µM, first compound 0.0316 µM
# [31] = second compound 10 µM, first compound 0.1 µM
# [32] = second compound 10 µM, first compound 0.316 µM
# [33] = second compound 10 µM, first compound 1 µM
# [34] = second compound 10 µM, first compound 3.16 µM
# [35] = second compound 10 µM, first compound 10 µM
# [36] = second compound 0.1 µM, first compound 0.01 µM
# [37] = second compound 0.316 µM, first compound 0.01 µM
# [38] = second compound 1 µM, first compound 0.01 µM
# [39] = second compound 3.16 µM, first compound 0.01 µM
# [40] = second compound 10 µM, first compound 0.01 µM
# 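Further: cells exposed to agents for seven days before viability read.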
# 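Wherever viability, T/C is given: 100% = DMSO vehicle control wells and lower values mean fewer viable cells.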
smiles,measurement,setting,value
CC1(C)CCC(CN2CCN(c3ccc(C(=O)NS(=O)(=O)c4ccc(NCC5CCOCC5)c([N+](=O)[O-])c4)c(Oc4cnc5[nH]ccc5c4)c3)CC2)=C(c2ccc(Cl)cc2)C1 + CC1OCC2(CCN(c3cnc(Sc4ccnc(N)c4Cl)c(N)n3)CC2)C1N,pIC50,[1],< 5.00
same,pIC50,[2],5.22
same,pIC50,[3],5.50
same,pIC50,[4],5.59
same,pIC50,[5],5.49
same,"viability, T/C",[6],78.6%
same,"viability, T/C",[7],91.9%
same,"viability, T/C",[8],72.4%
same,"viability, T/C",[9],116%
same,"viability, T/C",[10],74.8%
same,"viability, T/C",[11],54.9%
same,"viability, T/C",[12],89.7%
same,"viability, T/C",[13],77.9%
same,"viability, T/C",[14],89.2%
same,"viability, T/C",[15],81%
same,"viability, T/C",[16],63.7%
same,"viability, T/C",[17],39%
same,"viability, T/C",[18],67.3%
same,"viability, T/C",[19],75%
same,"viability, T/C",[20],85.7%
same,"viability, T/C",[21],62.3%
same,"viability, T/C",[22],51.6%
same,"viability, T/C",[23],27.2%
same,"viability, T/C",[24],69.1%
same,"viability, T/C",[25],62.6%
same,"viability, T/C",[26],77.5%
same,"viability, T/C",[27],81.1%
same,"viability, T/C",[28],45%
same,"viability, T/C",[29],24.8%
same,"viability, T/C",[30],60.1%
same,"viability, T/C",[31],72%
same,"viability, T/C",[32],65.8%
same,"viability, T/C",[33],72.7%
same,"viability, T/C",[34],50.4%
same,"viability, T/C",[35],14.4%
COc1cc(Nc2ncc3c(n2)-c2ccc(Cl)cc2C(c2c(F)cccc2OC)=NC3)ccc1C(=O)O + COc1cc2nc(C)nc(NC(C)c3cc(N)cc(C(F)(F)F)c3)c2cc1OC1CCOC1,pIC50,[1],< 5.00
same,pIC50,[2],< 5.00
same,pIC50,[3],< 5.00
same,pIC50,[4],< 5.00
same,pIC50,[5],> 7.50
same,"viability, T/C",[6],79.9%
same,"viability, T/C",[7],78.9%
same,"viability, T/C",[8],74.3%
same,"viability, T/C",[9],68%
same,"viability, T/C",[10],61.6%
same,"viability, T/C",[11],57.1%
same,"viability, T/C",[12],83.3%
same,"viability, T/C",[13],69.9%
same,"viability, T/C",[14],70.9%
same,"viability, T/C",[15],69.5%
same,"viability, T/C",[16],67.2%
same,"viability, T/C",[17],54.6%
same,"viability, T/C",[18],91.7%
same,"viability, T/C",[19],67.4%
same,"viability, T/C",[20],63.5%
same,"viability, T/C",[21],68%
same,"viability, T/C",[22],58.4%
same,"viability, T/C",[23],55.2%
same,"viability, T/C",[24],70%
same,"viability, T/C",[25],60.4%
same,"viability, T/C",[26],56.6%
same,"viability, T/C",[27],54.1%
same,"viability, T/C",[28],74.6%
same,"viability, T/C",[29],57.4%
same,"viability, T/C",[30],29.1%
same,"viability, T/C",[31],37.9%
same,"viability, T/C",[32],30.9%
same,"viability, T/C",[33],21.2%
same,"viability, T/C",[34],31.4%
same,"viability, T/C",[35],17.6%
CC(=O)Nc1cccc(-n2c(=O)n(C3CC3)c(=O)c3c(Nc4ccc(I)cc4F)n(C)c(=O)c(C)c32)c1 + CNCc1ccccc1-c1csc(C(C)Nc2nc(C)nc3cc(OC)c(OC)cc23)c1,pIC50,[1],8.23
same,pIC50,[2],8.31
same,pIC50,[3],8.85
same,pIC50,[4],> 10.00
same,pIC50,[5],> 10.00
same,"viability, T/C","second compound 0.1 µM, first compound 0.0001 µM",97.3%
same,"viability, T/C","second compound 0.1 µM, first compound 0.000316 µM",77.5%
same,"viability, T/C","second compound 0.1 µM, first compound 0.001 µM",90.5%
same,"viability, T/C","second compound 0.1 µM, first compound 0.00316 µM",59.2%
same,"viability, T/C",[36],40.1%
same,"viability, T/C",[6],15.5%
same,"viability, T/C","second compound 0.316 µM, first compound 0.0001 µM",93.5%
same,"viability, T/C","second compound 0.316 µM, first compound 0.000316 µM",82.1%
same,"viability, T/C","second compound 0.316 µM, first compound 0.001 µM",83.7%
same,"viability, T/C","second compound 0.316 µM, first compound 0.00316 µM",57%
same,"viability, T/C",[37],35.2%
same,"viability, T/C",[12],17.3%
same,"viability, T/C","second compound 1 µM, first compound 0.0001 µM",69.4%
same,"viability, T/C","second compound 1 µM, first compound 0.000316 µM",56.5%
same,"viability, T/C","second compound 1 µM, first compound 0.001 µM",61.1%
same,"viability, T/C","second compound 1 µM, first compound 0.00316 µM",27.6%
same,"viability, T/C",[38],23.1%
same,"viability, T/C",[18],9.49%
same,"viability, T/C","second compound 3.16 µM, first compound 0.0001 µM",5.56%
same,"viability, T/C","second compound 3.16 µM, first compound 0.000316 µM",0.89%
same,"viability, T/C","second compound 3.16 µM, first compound 0.001 µM",3.86%
same,"viability, T/C","second compound 3.16 µM, first compound 0.00316 µM",1.97%
same,"viability, T/C",[39],0.56%
same,"viability, T/C",[24],0.49%
same,"viability, T/C","second compound 10 µM, first compound 0.0001 µM",0.21%
same,"viability, T/C","second compound 10 µM, first compound 0.000316 µM",2.92%
same,"viability, T/C","second compound 10 µM, first compound 0.001 µM",4.6%
same,"viability, T/C","second compound 10 µM, first compound 0.00316 µM",3.3%
same,"viability, T/C",[40],0.22%
same,"viability, T/C",[30],3.97%
CC1COCCN1c1cc(-c2ccnn2C)c2ccnc(-c3ccn[nH]3)c2n1 (centres undefined) + CNCc1ccccc1-c1csc(C(C)Nc2nc(C)nc3cc(OC)c(OC)cc23)c1,pIC50,[1],< 5.50
same,pIC50,[2],< 5.50
same,pIC50,[3],< 5.50
same,pIC50,[4],> 8.00
same,pIC50,[5],> 8.00
same,"viability, T/C",[36],93.1%
same,"viability, T/C",[6],95.5%
same,"viability, T/C",[7],90.2%
same,"viability, T/C",[8],82.8%
same,"viability, T/C",[9],70%
same,"viability, T/C",[10],57%
same,"viability, T/C",[37],93.2%
same,"viability, T/C",[12],94.1%
same,"viability, T/C",[13],87.7%
same,"viability, T/C",[14],85.3%
same,"viability, T/C",[15],77.9%
same,"viability, T/C",[16],59.1%
same,"viability, T/C",[38],82%
same,"viability, T/C",[18],86.7%
same,"viability, T/C",[19],69.9%
same,"viability, T/C",[20],63.1%
same,"viability, T/C",[21],57.7%
same,"viability, T/C",[22],50.9%
same,"viability, T/C",[39],0.49%
same,"viability, T/C",[24],1.11%
same,"viability, T/C",[25],1.38%
same,"viability, T/C",[26],1.8%
same,"viability, T/C",[27],2.11%
same,"viability, T/C",[28],1.03%
same,"viability, T/C",[40],0.67%
same,"viability, T/C",[30],3.53%
same,"viability, T/C",[31],0.82%
same,"viability, T/C",[32],0.17%
same,"viability, T/C",[33],0.15%
same,"viability, T/C",[34],2.79%
CC(C)NCC(C(=O)N1CCN(c2ncnc3c2C(C)CC3O)CC1)c1ccc(Cl)cc1 (centres undefined) + C=CC(=O)N1CCN(c2nc(OCC3CCCN3C)nc3c2CCN(c2cccc4cccc(C)c24)C3)CC1CC#N,pIC50,"curve of first compound, second compound 0.0316 µM",< 5.00
same,pIC50,[1],< 5.00
same,pIC50,[2],< 5.00
same,pIC50,[3],< 5.00
same,pIC50,[4],> 7.50
same,"viability, T/C","second compound 0.0316 µM, first compound 0.0316 µM",97.3%
same,"viability, T/C","second compound 0.0316 µM, first compound 0.1 µM",93.5%
same,"viability, T/C","second compound 0.0316 µM, first compound 0.316 µM",84.8%
same,"viability, T/C","second compound 0.0316 µM, first compound 1 µM",63.7%
same,"viability, T/C","second compound 0.0316 µM, first compound 3.16 µM",66.3%
same,"viability, T/C","second compound 0.0316 µM, first compound 10 µM",64.9%
same,"viability, T/C",[6],80.6%
same,"viability, T/C",[7],81.7%
same,"viability, T/C",[8],67.6%
same,"viability, T/C",[9],64.6%
same,"viability, T/C",[10],85.4%
same,"viability, T/C",[11],76.9%
same,"viability, T/C",[12],66.8%
same,"viability, T/C",[13],81.4%
same,"viability, T/C",[14],72.8%
same,"viability, T/C",[15],65.5%
same,"viability, T/C",[16],63.2%
same,"viability, T/C",[17],58.7%
same,"viability, T/C",[18],60.4%
same,"viability, T/C",[19],65.6%
same,"viability, T/C",[20],65%
same,"viability, T/C",[21],61.9%
same,"viability, T/C",[22],64.8%
same,"viability, T/C",[23],58.4%
same,"viability, T/C",[24],37.6%
same,"viability, T/C",[25],46.9%
same,"viability, T/C",[26],44%
same,"viability, T/C",[27],22%
same,"viability, T/C",[28],32%
same,"viability, T/C",[29],27.3%
COc1cc2nccc(Oc3ccc(NC(=O)C4(C(=O)Nc5ccc(F)cc5)CC4)cc3)c2cc1OC,"viability, T/C",compound 0.0316 µM,93.2% [middle of 5 runs]
same,"viability, T/C",compound 0.1 µM,89.3% [middle of 5 runs]
same,"viability, T/C",compound 3.16 µM,93.1% [middle of 5 runs]
same,pIC50,curve of compound,< 5.00
